From the supplement of paper PMC13380429

Columns and labels:
Settings in all cases: 72 h
Caco-2 [1] = test: cell viability relative to DMSO; higher = less toxic
Calu-3 [2] = test: as above
HepG2 [3] = test: as above
U2OS [4] = test: as above
Vero E6 [5] = test: as above
Caco-2 [6] = test: relative viability EC50 (midpoint between 100% and the lowest measured viability); higher = less toxic
Calu-3 [7] = test: as above
HepG2 [8] = test: as above
U2OS [9] = test: as above
Vero E6 [10] = test: as above
Caco-2 [11] = test: drug sensitivity score (DSS) for viability; higher = more toxic; extreme values may be limits of the assay
Calu-3 [12] = test: as above
HepG2 [13] = test: as above
U2OS [14] = test: as above
Vero E6 [15] = test: as above

Structure (SMILES)	cell viability (Caco-2 [1]; 1 nM) [%]	cell viability (Caco-2 [1]; 10 nM) [%]	cell viability (Caco-2 [1]; 100 nM) [%]	cell viability (Caco-2 [1]; 1000 nM) [%]	cell viability (Caco-2 [1]; 10000 nM) [%]	cell viability (Calu-3 [2]; 1 nM) [%]	cell viability (Calu-3 [2]; 10 nM) [%]	cell viability (Calu-3 [2]; 100 nM) [%]	cell viability (Calu-3 [2]; 1000 nM) [%]	cell viability (Calu-3 [2]; 10000 nM) [%]	cell viability (HepG2 [3]; 1 nM) [%]	cell viability (HepG2 [3]; 10 nM) [%]	cell viability (HepG2 [3]; 100 nM) [%]	cell viability (HepG2 [3]; 1000 nM) [%]	cell viability (HepG2 [3]; 10000 nM) [%]	cell viability (U2OS [4]; 1 nM) [%]	cell viability (U2OS [4]; 10 nM) [%]	cell viability (U2OS [4]; 100 nM) [%]	cell viability (U2OS [4]; 1000 nM) [%]	cell viability (U2OS [4]; 10000 nM) [%]	cell viability (Vero E6 [5]; 1 nM) [%]	cell viability (Vero E6 [5]; 10 nM) [%]	cell viability (Vero E6 [5]; 100 nM) [%]	cell viability (Vero E6 [5]; 1000 nM) [%]	cell viability (Vero E6 [5]; 10000 nM) [%]	relative viability EC50 (Caco-2 [6]) [µM]	relative viability EC50 (Calu-3 [7]) [µM]	relative viability EC50 (HepG2 [8]) [µM]	relative viability EC50 (U2OS [9]) [µM]	relative viability EC50 (Vero E6 [10]) [µM]	drug sensitivity score (Caco-2 [11])	drug sensitivity score (Calu-3 [12])	drug sensitivity score (HepG2 [13])	drug sensitivity score (U2OS [14])	drug sensitivity score (Vero E6 [15])
N[C@@H](Cc1ccc(Cl)cc1)C(=O)O (racemic) [fenclonine-(+/-)]	94	102	97.9	97.5	93.2	98.1	101	97.7	96.4	97.1	103	107	101	93.7	100	93.6	101	96.4	102	97.2	110	106	105	98.6	102	> 10	> 10	> 10	> 10	> 10	0	0	0	0	0
O=C([O-])CN1CCN(CC(=O)[O-])CCN([C@H](CO)[C@H](O)CO)CCN(CC(=O)[O-])CC1.[Gd+3] (racemic) [gadobutrol]	107	96.2	95.5	98.8	104	96.2	104	109	109	98.4	97	99.2	101	91.8	100	99.6	113	100	104	106	100	105	96.8	99.4	107	> 10	> 10	> 10	> 10	> 10	0	0	0	0	0
N[C@@H](C(=O)O)c1nn[nH]n1 (racemic) [tetrazol-5-yl-glycine-(RS)]	97.2	95.6	104	98	90.6	112	109	105	95.2	89.3	91	107	101	96.6	108	104	98.5	103	93.7	104	95	104	90.2	98.3	107	> 10	> 10	> 10	> 10	> 10	0	0.1	0	0	0
O=C1Cc2c([nH]c3ccc(Br)cc23)-c2ncccc2N1 [1-azakenpaullone]	98.1	99.7	95.4	109	104	102	94.6	101	104	118	89.6	96.3	92.8	104	105	99.8	95.9	99.3	98.4	96.1	91.7	103	96.5	101	105	> 10	> 10	> 10	> 10	> 10	0	0	0	0	0
COc1ccc2[nH]c(-c3ccccc3)c(CCNC(C)=O)c2c1 [2-phenylmelatonin]	98.8	105	93	98	82.6	96.5	94.9	99.3	106	102	104	99.5	101	101	105	102	101	97.6	105	98.1	101	99.9	106	98.8	93.7	> 10	> 10	> 10	> 10	> 10	0.6	0	0	0	0
Cc1ccc(/C=C2/C(=O)C3(C)CCC2C3(C)C)cc1 (stereo not given) [3-(4-methylbenzylidene)camphor]	92.9	100	90	95.8	95.9	102	97.2	88.1	92.1	93.8	94.1	96	94.3	88.9	103	101	104	96.4	99.1	100	101	101	96.9	99.9	96.3	> 10	> 10	> 10	> 10	> 10	0	1.2	0	0	0
